Experimental data taken from patent US20030074686A1, “Novel method for the generation and selection of transgenic linseed/flax plants” (priority 1999, published 2003).
Several values for one entry are separate records, joined by “and”; a condition that tells them apart may be missing. Identical values can stand only once.

Experiments:
[1] = system: Flanders 301 transgenic shoots (JH5 vector); experiment: Survival of transgenic shoots on medium with G-418; format: in vivo, Linum usitatissimum; conditions: of four shoots
Excerpt: (§1) Preferably, testing the two antibiotic system in the transformation experiments is done using kanamycin for the initial selection and G-418 for the second and third rounds of selection (FIG. 1).

[2] = system: Ed 45 288 transgenic shoots (JH5 vector); experiment: Survival of transgenic shoots on medium with G-418; format: in vivo, Linum usitatissimum; conditions: of four shoots
Excerpt: as §1

[3] = system: McGregor 324 transgenic shoots (JH5 vector); experiment: Survival of transgenic shoots on medium with G-418; format: in vivo, Linum usitatissimum; conditions: of four shoots
Excerpt: as §1

[4] = system: Flanders WT shoots; experiment: Survival of wild-type shoots on medium with G-418; format: in vivo, Linum usitatissimum; conditions: of four shoots
Excerpt: as §1

[5] = system: McGregor WT shoots; experiment: Survival of wild-type shoots on medium with G-418; format: in vivo, Linum usitatissimum; conditions: of four shoots
Excerpt: as §1

[6] = system: wild-type flax regenerated shoots; experiment: Tolerance of regenerated shoots to G-418; format: in vivo; conditions: tests using regenerated shoots
Excerpt: as §1

[7] = system: Ed 45 WT shoots; experiment: Survival of wild-type shoots on medium with G-418; format: in vivo, Linum usitatissimum; conditions: of four shoots
[8] = system: hypocotyl segments used for the Agrobacterium tumefaciens inoculation; experiment: Sensitivity of hypocotyl segments to selection antibiotics; format: in vivo, flax; conditions: selective antibiotic for the initial transformation
Excerpt: as §1

Compound: CN[C@@H]1[C@@H](O)[C@@H](O[C@@H]2[C@@H](O)[C@H](O[C@H]3O[C@H]([C@@H](C)O)[C@@H](O)[C@H](O)[C@H]3N)[C@@H](N)C[C@H]2N)OC[C@]1(C)O [G-418]
- Number of shoots surviving 24 days on medium with G-418 ([1]; G-418 10 mg/l): 4
- Number of shoots surviving 24 days on medium with G-418 ([1]; G-418 20 mg/l): 4
- Number of shoots surviving 24 days on medium with G-418 ([1]; G-418 30 mg/l): 3 and 4
- Number of shoots surviving 24 days on medium with G-418 ([1]; G-418 40 mg/l): 4
- Number of shoots surviving 24 days on medium with G-418 ([1]; G-418 50 mg/l): 4
- Number of shoots surviving 24 days on medium with G-418 ([1]; G-418 70 mg/l): 4
- Number of shoots surviving 24 days on medium with G-418 ([1]; G-418 100 mg/l): 4 and 3
- Number of shoots surviving 24 days on medium with G-418 ([1]; G-418 150 mg/l): 2 and 4
- Number of shoots surviving 24 days on medium with G-418 ([1]; G-418 200 mg/l): 1 and 2
- Number of shoots surviving 24 days on medium with G-418 ([2]; G-418 10 mg/l): 4
- Number of shoots surviving 24 days on medium with G-418 ([2]; G-418 20 mg/l): 4
- Number of shoots surviving 24 days on medium with G-418 ([2]; G-418 30 mg/l): 4
- Number of shoots surviving 24 days on medium with G-418 ([2]; G-418 40 mg/l): 4
- Number of shoots surviving 24 days on medium with G-418 ([2]; G-418 50 mg/l): 4 and 3
- Number of shoots surviving 24 days on medium with G-418 ([2]; G-418 70 mg/l): 4
- Number of shoots surviving 24 days on medium with G-418 ([2]; G-418 100 mg/l): 3 and 4
- Number of shoots surviving 24 days on medium with G-418 ([3]; G-418 10 mg/l): 4
- Number of shoots surviving 24 days on medium with G-418 ([3]; G-418 20 mg/l): 4
- Number of shoots surviving 24 days on medium with G-418 ([3]; G-418 30 mg/l): 4
- Number of shoots surviving 24 days on medium with G-418 ([3]; G-418 40 mg/l): 4
- Number of shoots surviving 24 days on medium with G-418 ([3]; G-418 50 mg/l): 4
- Number of shoots surviving 24 days on medium with G-418 ([3]; G-418 70 mg/l): 4
- Number of shoots surviving 24 days on medium with G-418 ([3]; G-418 100 mg/l): 4
- Number of shoots surviving 24 days on medium with G-418 ([3]; G-418 150 mg/l): 4 and 3
- Number of shoots surviving 24 days on medium with G-418 ([4]; G-418 10 mg/l): 4
- Number of shoots surviving 24 days on medium with G-418 ([4]; G-418 20 mg/l): 3 and 4
- Number of shoots surviving 24 days on medium with G-418 ([4]; G-418 50 mg/l): 0
- Number of shoots surviving 24 days on medium with G-418 ([4]; G-418 70 mg/l): 0
- Number of shoots surviving 24 days on medium with G-418 ([4]; G-418 100 mg/l): 0
- Number of shoots surviving 24 days on medium with G-418 ([4]; G-418 150 mg/l): 0
- Number of shoots surviving 24 days on medium with G-418 ([4]; G-418 200 mg/l): 0
- Number of shoots surviving 24 days on medium with G-418 ([5]; G-418 10 mg/l): 4
- Number of shoots surviving 24 days on medium with G-418 ([5]; G-418 20 mg/l): 4 and 3
- Number of shoots surviving 24 days on medium with G-418 ([5]; G-418 30 mg/l): 2
- Number of shoots surviving 24 days on medium with G-418 ([5]; G-418 50 mg/l): 0
- Number of shoots surviving 24 days on medium with G-418 ([5]; G-418 70 mg/l): 0
- Number of shoots surviving 24 days on medium with G-418 ([5]; G-418 100 mg/l): 0
- Number of shoots surviving 24 days on medium with G-418 ([5]; G-418 150 mg/l): 0
- Number of shoots surviving 24 days on medium with G-418 ([5]; G-418 200 mg/l): 0
- Natural tolerance of wild-type flax [6]: no natural tolerance
- Number of shoots surviving 24 days on medium with G-418 ([7]; G-418 10 mg/l): 4
- Number of shoots surviving 24 days on medium with G-418 ([7]; G-418 20 mg/l): 1 and 2
- Number of shoots surviving 24 days on medium with G-418 ([7]; G-418 30 mg/l): 1 and 2
- Number of shoots surviving 24 days on medium with G-418 ([7]; G-418 40 mg/l): 0
- Number of shoots surviving 24 days on medium with G-418 ([7]; G-418 50 mg/l): 0
- Number of shoots surviving 24 days on medium with G-418 ([7]; G-418 70 mg/l): 0
- Number of shoots surviving 24 days on medium with G-418 ([7]; G-418 100 mg/l): 0
- Number of shoots surviving 24 days on medium with G-418 ([7]; G-418 150 mg/l): 0
- Number of shoots surviving 24 days on medium with G-418 ([7]; G-418 200 mg/l): 0
- Callus production with the antibiotic as selective agent [8]: no callus was produced
